{"source": "patent US12508246B2", "about": "“Uses of complex of angiotensin II receptor antagonist metabolite and NEP inhibitor in treating heart failure” (SHENZHEN SALUBRIS PHARMACEUTICALS CO. LTD, priority 2019, dated 2025)", "key": {"[1]": {"test_system": "dogs with heart failure (reduced ejection fraction)", "assay": "Pharmacodynamic study in the canine chronic heart failure model-reduced ejection fraction (LAD ligation, echocardiography)", "format": "in vivo", "details": "HFrEF dog model; 100 mpk (mix: EXP3174 52 mpk + sacubitril 48 mpk) p.o. qd, from 3 d after modeling for 6 weeks; Mean ± SD; model 35.82, sham 66.20", "method": "4.1 Methods: After the animals arrived at the facility, they were on adaptive feeding, and randomized after echocardiography and ECG, and then the experiment was started. On the day of operation, animals were anesthetized by intramuscular injection of Zoletil (5 mg/kg). The trachea of the anesthetized dogs were connected to the ventilator, and then they were fixed in a supine position, their chest was opened between the third and fourth ribs, the left anterior descending coronary artery was ligated to close the thoracic cavity, and then the skin was sutured. After the animals recovered for 3 days after operation, they were given therapeutic drugs by gavage, once a day for […] consecutive weeks. During the experiment, animal's living conditions were observed every day, and their abnormal conditions were recorded. After 42 days of dosing, echocardiography was performed.\n(§1) 4.2 Modeling: On the day before operation, the animals were fasted overnight. On the day of operation, the animals were intramuscularly injected with Zoletil (dose: 5 mg/kg) to induce anesthesia, and also were intramuscularly administered with atropine sulfate injection (dose: 0.5 mg/dog). After the animals were anesthetized, their hair on the left chest was shaved clean. […]"}, "[2]": {"test_system": "dogs with heart failure (preserved ejection fraction)", "assay": "Pharmacodynamic study in the canine chronic heart failure model-preserved ejection fraction (LAD ligation, echocardiography)", "format": "in vivo", "details": "HFpEF dog model; 100 mpk (mix: EXP3174 52 mpk + sacubitril 48 mpk) p.o. qd, from 3 d after modeling for 2 weeks; Mean ± SD; model 51.80, sham 68.15", "method": "5.1 Methods: After the animals arrived at the facility, they were on adaptive feeding, and randomized after echocardiography and ECG, and then the experiment was started. On the day of operation, animals were anesthetized by intramuscular injection of Zoletil (5 mg/kg). The tracheae of the anesthetized dogs were connected to the ventilator, and then they were fixed in a supine position; their chests were opened between the third and fourth ribs, the left anterior descending coronary artery was ligated to close the thoracic cavity, and then the skin was sutured. After the animals recovered for 3 days after operation, they were given therapeutic drugs by gavage, once a day for two consecutive weeks. During the experiment, the animals' living conditions were observed every day, and their abnormal conditions were recorded. After 14 days of dosing, echocardiography was performed.\nas §1, with “5.2” for “4.2”"}}, "note": "Values joined by “and” are separate entries in the source; they are usually repeats but may differ in a detail not shown here. Equal entries are not always repeated. Marks after values point to notes of the source that are not given here.", "data": [{"substance": "(EXP3174·AHU377)^3−·1.5 Ca^2+·2H2O [Complex of the invention]", "values": [{"measurement": "endpoint left ventricular ejection fraction LVEF (%)", "setting": "[1]", "value": "51.87 ± 1.01***^@$ %"}, {"measurement": "endpoint left ventricular ejection fraction LVEF (%)", "setting": "[2]", "value": "58.04 ± 1.29***^@ %"}]}, {"substance": "Valsartan-Sacubitril sodium salt complex [LCZ696]", "values": [{"measurement": "endpoint left ventricular ejection fraction LVEF (%)", "setting": "[1]", "value": "46.45% and 46.45 ± 3.39 %"}, {"measurement": "endpoint left ventricular ejection fraction LVEF (%)", "setting": "[2]", "value": "57.98% and 57.98 ± 2.64 %"}]}]}
